Source: PubChem BioAssay (NCI)
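In this assay, cells in 96-well plates receive the compound at five concentrations for 48 hours. Endpoints are linearly interpolated between the surrounding concentrations. Abbreviation: GI50, concentration required for 50% inhibition of growth. Definition used: TGI = concentration required for complete inhibition of growth.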

Legend:
Experiment in all cases: NCI-60 cell line screen, 48 h
[1] = tested on: HCT-116 colon
[2] = tested on: SK-OV-3 ovarian
[3] = tested on: M14 melanoma
[4] = tested on: BT-549 breast
[5] = tested on: NCI-H23 lung
[6] = tested on: OVCAR-4 ovarian
[7] = tested on: UACC-62 melanoma
[8] = tested on: OVCAR-5 ovarian
[9] = tested on: ACHN renal
[10] = tested on: U251 CNS
[11] = tested on: UO-31 renal
[12] = tested on: A498 renal
[13] = tested on: HL-60(TB) leukemia
[14] = tested on: DU-145 prostate
[15] = tested on: UACC-257 melanoma
[16] = tested on: MALME-3M melanoma
[17] = tested on: SF-268 CNS
[18] = tested on: MDA-MB-435
[19] = tested on: SNB-19 CNS
[20] = tested on: A549 NSCLC
[21] = tested on: NCI/ADR-RES ovarian
[22] = tested on: NCI-H226 lung
[23] = tested on: SF-295 CNS
[24] = tested on: NCI-H522 lung
[25] = tested on: HT29 colon
[26] = tested on: HOP-62 NSCLC
[27] = tested on: CAKI-1 renal
[28] = tested on: K-562 leukemia
[29] = tested on: LOX IMVI melanoma
[30] = tested on: NCI-H460 lung
[31] = tested on: RXF 393 renal
[32] = tested on: SF-539 CNS
[33] = tested on: SK-MEL-5 melanoma
[34] = tested on: 786-0 renal
[35] = tested on: SR leukemia
[36] = tested on: TK-10 renal
[37] = tested on: IGROV1 ovarian
[38] = tested on: HCT-15 colon
[39] = tested on: PC-3 prostate
[40] = tested on: HCC-2998 colon
[41] = tested on: SNB-75 CNS
[42] = tested on: COLO 205 colon
[43] = tested on: KM12 colon
[44] = tested on: CCRF-CEM leukemia
[45] = tested on: MDA-MB-231 breast
[46] = tested on: SK-MEL-2 melanoma
[47] = tested on: T-47D breast
[48] = tested on: HOP-92 NSCLC
[49] = tested on: SN12C renal
[50] = tested on: MDA-MB-468 breast
[51] = tested on: OVCAR-8 ovarian
[52] = tested on: SK-MEL-28 melanoma
[53] = tested on: RPMI-8226 leukemia
[54] = tested on: OVCAR-3 ovarian
[55] = tested on: SW-620 colon
[56] = tested on: EKVX NSCLC

NS(=O)(=O)c1ccc(N=Nc2c(O)n(CC(=O)Nc3ccccc3)c3ccccc23)cc1
GI50 [1]: 0.46 µM | TGI [1]: 2.58 µM | GI50 [2]: 3.11 µM | TGI [2]: 10.2 µM | GI50 [3]: 1.14 µM | TGI [3]: > 100 µM | GI50 [4]: 2.03 µM | TGI [4]: 7.73 µM | GI50 [5]: 0.801 µM | TGI [5]: 3.46 µM | GI50 [6]: 0.93 µM | TGI [6]: 69.7 µM | GI50 [7]: 0.52 µM | TGI [7]: 2.81 µM | GI50 [8]: 3.52 µM | TGI [8]: 26.1 µM | GI50 [9]: 0.606 µM | TGI [9]: 4.53 µM | GI50 [10]: 1.17 µM | TGI [10]: 3.88 µM | GI50 [11]: 0.895 µM | TGI [11]: 6.95 µM | GI50 [12]: 1.29 µM | TGI [12]: 5.39 µM | GI50 [13]: 0.443 µM | TGI [13]: > 100 µM | GI50 [14]: 0.794 µM | TGI [14]: 48.3 µM | GI50 [15]: 2.02 µM | TGI [15]: 20.3 µM | GI50 [16]: 1.09 µM | TGI [16]: 5.15 µM | GI50 [17]: 3.59 µM | TGI [17]: > 100 µM | GI50 [18]: 0.635 µM | TGI [18]: 6.1 µM | GI50 [19]: 1.67 µM | TGI [19]: 15.1 µM | GI50 [20]: 0.738 µM | TGI [20]: 4.18 µM | GI50 [21]: > 100 µM | TGI [21]: > 100 µM | GI50 [22]: 1.4 µM | TGI [22]: 4.75 µM | GI50 [23]: 1.23 µM | TGI [23]: 5.16 µM | GI50 [24]: 0.589 µM | TGI [24]: 3.8 µM | GI50 [25]: 0.749 µM | TGI [25]: 2.82 µM | GI50 [26]: 1.8 µM | TGI [26]: 5.5 µM | GI50 [27]: 0.434 µM | TGI [27]: 2.36 µM | GI50 [28]: 0.895 µM | TGI [28]: > 100 µM | GI50 [29]: 0.725 µM | TGI [29]: 11.3 µM | GI50 [30]: 0.544 µM | TGI [30]: 3.07 µM | GI50 [31]: 1.36 µM | TGI [31]: 5.06 µM | GI50 [32]: 0.538 µM | TGI [32]: 2.03 µM | GI50 [33]: 1 µM | TGI [33]: 5.5 µM | GI50 [34]: 1.29 µM | TGI [34]: 6.54 µM | GI50 [35]: 0.194 µM | TGI [35]: > 100 µM | GI50 [36]: 2.64 µM | TGI [36]: 25.8 µM | GI50 [37]: 2.79 µM | TGI [37]: 14.5 µM | GI50 [38]: 0.533 µM | TGI [38]: > 100 µM | GI50 [39]: 1.61 µM | TGI [39]: 10.9 µM | GI50 [40]: 2.2 µM | TGI [40]: 8.56 µM | GI50 [41]: 1.94 µM | TGI [41]: 8.22 µM | GI50 [42]: 1.24 µM | TGI [42]: 6.74 µM | GI50 [43]: 1.03 µM | TGI [43]: 22.5 µM | GI50 [44]: 0.776 µM | TGI [44]: > 100 µM | GI50 [45]: 1.4 µM | TGI [45]: 3.92 µM | GI50 [46]: 2.25 µM | TGI [46]: 6.9 µM | GI50 [47]: 1.89 µM | TGI [47]: 21.4 µM | GI50 [48]: 1.6 µM | TGI [48]: 6.56 µM | GI50 [49]: 1.14 µM | TGI [49]: 6.05 µM | GI50 [50]: 0.768 µM | TGI [50]: 4.65 µM | GI50 [51]: 0.646 µM | TGI [51]: 3.16 µM | GI50 [52]: 0.932 µM | TGI [52]: 6.06 µM | GI50 [53]: 1.13 µM | TGI [53]: > 100 µM | GI50 [54]: 0.873 µM | TGI [54]: 16 µM | GI50 [55]: 0.402 µM | TGI [55]: 2.26 µM | GI50 [56]: 3.35 µM | TGI [56]: 39.3 µM
